{
  "source": "ChEMBL document CHEMBL1201862",
  "about": "“PubChem BioAssay data set” (2004)",
  "experiment_in_all_cases": "growth of human tumour cells (NCI), 48 h",
  "key": {"[1]": {"test_system": "HCC 2998"}, "[2]": {"test_system": "A549"}, "[3]": {"test_system": "SK-MEL-2"}, "[4]": {"test_system": "NCI-H460"}, "[5]": {"test_system": "T47D"}, "[6]": {"test_system": "MOLT-4"}, "[7]": {"test_system": "OVCAR-5"}, "[8]": {"test_system": "HCT-15"}, "[9]": {"test_system": "SF-539"}, "[10]": {"test_system": "Malme-3M"}, "[11]": {"test_system": "OVCAR-4"}, "[12]": {"test_system": "UO-31"}, "[13]": {"test_system": "SK-MEL-28"}, "[14]": {"test_system": "CAKI-1"}, "[15]": {"test_system": "M14"}, "[16]": {"test_system": "LOX IMVI"}, "[17]": {"test_system": "RXF 393"}, "[18]": {"test_system": "NCI-H23"}, "[19]": {"test_system": "NCI-H226"}, "[20]": {"test_system": "K562"}, "[21]": {"test_system": "COLO 205"}, "[22]": {"test_system": "HT-29"}, "[23]": {"test_system": "EKVX"}, "[24]": {"test_system": "SN12C"}, "[25]": {"test_system": "ACHN"}, "[26]": {"test_system": "PC-3"}, "[27]": {"test_system": "HL-60"}, "[28]": {"test_system": "SF-268"}, "[29]": {"test_system": "UACC-62"}, "[30]": {"test_system": "786-0"}, "[31]": {"test_system": "Hs-578T"}, "[32]": {"test_system": "NCI-H522"}, "[33]": {"test_system": "TK-10"}, "[34]": {"test_system": "IGROV-1"}, "[35]": {"test_system": "MDA-MB-231"}, "[36]": {"test_system": "HOP-92"}, "[37]": {"test_system": "SNB-19"}, "[38]": {"test_system": "UACC-257"}, "[39]": {"test_system": "SF-295"}, "[40]": {"test_system": "SNB-75"}, "[41]": {"test_system": "DU-145"}, "[42]": {"test_system": "SK-MEL-5"}, "[43]": {"test_system": "U-251"}, "[44]": {"test_system": "MCF7"}, "[45]": {"test_system": "NCI/ADR-RES"}, "[46]": {"test_system": "OVCAR-8"}, "[47]": {"test_system": "SK-OV-3"}, "[48]": {"test_system": "MDA-MB-435"}, "[49]": {"test_system": "KM12"}, "[50]": {"test_system": "SW-620"}, "[51]": {"test_system": "BT-549"}, "[52]": {"test_system": "CCRF-CEM"}, "[53]": {"test_system": "A498"}, "[54]": {"test_system": "HCT-116"}, "[55]": {"test_system": "MDA-N"}, "[56]": {"test_system": "SR"}},
  "note": "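Test compounds were applied to cells in 96-well plates for 48 hours at 5 doses. The concentration for 50% growth inhibition is given as GI50.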 The source made the active and inactive calls. Cut-off read from the data, not from the text of the source: active = GI50 up to about 1.1 µM and inactive = higher.",
  "data": [
    {"smiles": "CCCCCCCCCCCC1=C(O)C(=O)C(CC2=C(O)C(=O)C(CCCCCCCCCCC)=C(O)C2=O)=C(O)C1=O", "values": [
      {"measurement": "GI50", "setting": "[1]", "value": "> 100 µM (inactive)"},
      {"measurement": "GI50", "setting": "[2]", "value": "> 100 µM (inactive)"},
      {"measurement": "GI50", "setting": "[3]", "value": "> 100 µM (inactive)"},
      {"measurement": "GI50", "setting": "[4]", "value": "> 100 µM (inactive)"},
      {"measurement": "GI50", "setting": "[5]", "value": "> 100 µM (inactive)"},
      {"measurement": "GI50", "setting": "[6]", "value": "> 100 µM (inactive)"},
      {"measurement": "GI50", "setting": "[7]", "value": "> 100 µM (inactive)"},
      {"measurement": "GI50", "setting": "[8]", "value": "> 100", "unit": "µM"},
      {"measurement": "GI50", "setting": "[9]", "value": "> 100 µM (inactive)"},
      {"measurement": "GI50", "setting": "[10]", "value": "44 µM (inactive)"},
      {"measurement": "GI50", "setting": "[11]", "value": "40.7 µM (inactive)"},
      {"measurement": "GI50", "setting": "[12]", "value": "> 100 µM (inactive)"},
      {"measurement": "GI50", "setting": "[13]", "value": "> 100 µM (inactive)"},
      {"measurement": "GI50", "setting": "[14]", "value": "60.5 µM (inactive)"},
      {"measurement": "GI50", "setting": "[15]", "value": "> 100 µM (inactive)"},
      {"measurement": "GI50", "setting": "[16]", "value": "> 100 µM (inactive)"},
      {"measurement": "GI50", "setting": "[17]", "value": "3.19 µM (inactive)"},
      {"measurement": "GI50", "setting": "[18]", "value": "54.6 µM (inactive)"},
      {"measurement": "GI50", "setting": "[19]", "value": "> 100 µM (inactive)"},
      {"measurement": "GI50", "setting": "[20]", "value": "49.8 µM (inactive)"},
      {"measurement": "GI50", "setting": "[21]", "value": "> 100 µM (inactive)"},
      {"measurement": "GI50", "setting": "[22]", "value": "> 100 µM (inactive)"},
      {"measurement": "GI50", "setting": "[23]", "value": "> 100 µM (inactive)"},
      {"measurement": "GI50", "setting": "[24]", "value": "> 100 µM (inactive)"},
      {"measurement": "GI50", "setting": "[25]", "value": "76 µM (inactive)"},
      {"measurement": "GI50", "setting": "[26]", "value": "> 100 µM (inactive)"},
      {"measurement": "GI50", "setting": "[27]", "value": "> 10 µM (inactive)"},
      {"measurement": "GI50", "setting": "[28]", "value": "26.5 µM (inactive)"},
      {"measurement": "GI50", "setting": "[29]", "value": "> 100 µM (inactive)"},
      {"measurement": "GI50", "setting": "[30]", "value": "59.6 µM (inactive)"},
      {"measurement": "GI50", "setting": "[31]", "value": "22.8 µM (inactive)"},
      {"measurement": "GI50", "setting": "[32]", "value": "40.6 µM (inactive)"},
      {"measurement": "GI50", "setting": "[33]", "value": "46.6 µM (inactive)"},
      {"measurement": "GI50", "setting": "[34]", "value": "> 100 µM (inactive)"},
      {"measurement": "GI50", "setting": "[35]", "value": "28.6 µM (inactive)"},
      {"measurement": "GI50", "setting": "[36]", "value": "16.3 µM (inactive)"},
      {"measurement": "GI50", "setting": "[37]", "value": "21.1 µM (inactive)"},
      {"measurement": "GI50", "setting": "[38]", "value": "> 100 µM (inactive)"},
      {"measurement": "GI50", "setting": "[39]", "value": "35.2 µM (inactive)"},
      {"measurement": "GI50", "setting": "[40]", "value": "14.9 µM (inactive)"},
      {"measurement": "GI50", "setting": "[41]", "value": "> 100 µM (inactive)"},
      {"measurement": "GI50", "setting": "[42]", "value": "> 100 µM (inactive)"},
      {"measurement": "GI50", "setting": "[43]", "value": "43.5 µM (inactive)"},
      {"measurement": "GI50", "setting": "[44]", "value": "> 100 µM (inactive)"},
      {"measurement": "GI50", "setting": "[45]", "value": "> 100 µM (inactive)"},
      {"measurement": "GI50", "setting": "[46]", "value": "29.8 µM (inactive)"},
      {"measurement": "GI50", "setting": "[47]", "value": "50.9 µM (inactive)"},
      {"measurement": "GI50", "setting": "[48]", "value": "> 100 µM (inactive)"},
      {"measurement": "GI50", "setting": "[49]", "value": "> 100 µM (inactive)"},
      {"measurement": "GI50", "setting": "[50]", "value": "> 100 µM (inactive)"},
      {"measurement": "GI50", "setting": "[51]", "value": "> 100 µM (inactive)"},
      {"measurement": "GI50", "setting": "[52]", "value": "21.2 µM (inactive)"},
      {"measurement": "GI50", "setting": "[53]", "value": "52.2 µM (inactive)"},
      {"measurement": "GI50", "setting": "[54]", "value": "> 100 µM (inactive)"},
      {"measurement": "GI50", "setting": "[55]", "value": "> 100 µM (inactive)"},
      {"measurement": "GI50", "setting": "[56]", "value": "19.2 µM (inactive)"}
    ]}
  ]
}
